Here are results for 25 compounds from PubChem BioAssay AID330 (DTP/NCI, 2004).

The test deals with P388 leukemia ip, CD2F1 mice, survival T/C. Briefly: NCI In Vivo Anticancer Drug Screen. Data for tumor model P388 Leukemia (intraperitoneal) in CD2F1 (CDF1) mice. The conditions noted are these: endpoint: median survival time, higher = longer survival. In short, it runs like this:
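Mice carrying the transplanted tumor received test compound or vehicle. Survival was recorded in each group, and the value is the treated-group measurement divided by that of the vehicle-treated control group.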

Setting [1] is: dose: 60.0 mg/kg/injection, schedule: Q01DX005 (ip), vehicle: saline with Tween-80.
[2] abbreviates: dose: 120.0 mg/kg/injection, schedule: Q01DX005 (ip), vehicle: saline with Tween-80.
Where [3] appears, read: dose: 240.0 mg/kg/injection, schedule: Q01DX005 (ip), vehicle: saline with Tween-80.
[4] abbreviates: dose: 50.0 mg/kg/injection, schedule: Q01DX009 (ip), vehicle: saline with Tween-80.
Setting [5] is: dose: 100.0 mg/kg/injection, schedule: Q01DX009 (ip), vehicle: saline with Tween-80.
Where [6] appears, read: dose: 200.0 mg/kg/injection, schedule: Q01DX009 (ip), vehicle: saline with Tween-80.
[7] abbreviates: dose: 12.5 mg/kg/injection, schedule: Q01DX005 (ip), vehicle: Klucel (hydroxypropylcellulose) (HPC).
Where [8] appears, read: dose: 25.0 mg/kg/injection, schedule: Q01DX005 (ip), vehicle: Klucel (hydroxypropylcellulose) (HPC).
The mark [9] stands for this setting: dose: 50.0 mg/kg/injection, schedule: Q01DX005 (ip), vehicle: Klucel (hydroxypropylcellulose) (HPC).
The mark [10] stands for this setting: dose: 100.0 mg/kg/injection, schedule: Q01DX001 (ip), vehicle: Klucel (hydroxypropylcellulose) (HPC).
The mark [11] stands for this setting: dose: 25.0 mg/kg/injection, schedule: Q01DX005 (ip), vehicle: saline.
The mark [12] stands for this setting: dose: 50.0 mg/kg/injection, schedule: Q01DX005 (ip), vehicle: saline.
Setting [13] is: dose: 100.0 mg/kg/injection, schedule: Q01DX005 (ip), vehicle: saline.
Setting [14] is: dose: 100.0 mg/kg/injection, schedule: Q01DX005 (ip), vehicle: Klucel (hydroxypropylcellulose) (HPC).
Where [15] appears, read: dose: 200.0 mg/kg/injection, schedule: Q01DX005 (ip), vehicle: Klucel (hydroxypropylcellulose) (HPC).
Where [16] appears, read: dose: 12.5 mg/kg/injection, schedule: Q01DX009 (ip), vehicle: water.
Where [17] appears, read: dose: 25.0 mg/kg/injection, schedule: Q01DX009 (ip), vehicle: water.
Setting [18] is: dose: 50.0 mg/kg/injection, schedule: Q01DX009 (ip), vehicle: water.
The mark [19] stands for this setting: dose: 100.0 mg/kg/injection, schedule: Q01DX009 (ip), vehicle: water.
Setting [20] is: dose: 200.0 mg/kg/injection, schedule: Q01DX009 (ip), vehicle: water.

Each structure is given as a SMILES string. Where “and” joins values, the source holds several entries; their conditions need not be identical. Equal values may be shown once. Toxic doses and inconclusive results are not listed.

Turning to `CC1CC(=O)Nc2nc(N)ncc21` (centres undefined), the T/C by setting is: under setting [1], 102 % of control; under setting [2], 106 % of control; under setting [3], 108 % of control.
As to `NC(Cc1ccc(OC2CCCC2)c(N(CCCl)CCCl)c1)C(=O)O` (centres undefined), the T/C reads like this: (dose: 7.5 mg/kg/injection, schedule: Q04DX003 (ip), vehicle: saline) 168 % of control; (dose: 15.0 mg/kg/injection, schedule: Q04DX003 (ip), vehicle: saline) 168 % of control; (dose: 30.0 mg/kg/injection, schedule: Q04DX003 (ip), vehicle: saline) 218 % of control.
Regarding `COC(=O)c1nn(Cc2ccccc2)cc1C=O`, the T/C was 99 % of control under setting [1], 92 % of control under setting [2] and 92 % of control under setting [3].
Regarding `CN(C)CCN1c2ccccc2Sc2ccc3ccccc3c21`, the T/C is, setting by setting: (dose: 50.0 mg/kg/injection, schedule: Q01DX005 (ip), vehicle: saline + Tween-80 + alcohol) 104 % of control; (dose: 100.0 mg/kg/injection, schedule: Q01DX005 (ip), vehicle: saline + Tween-80 + alcohol) 107 % of control; (dose: 200.0 mg/kg/injection, schedule: Q01DX005 (ip), vehicle: saline + Tween-80 + alcohol) 107 % of control.
As to `COC(=O)c1cc(-c2ccc(OC)cc2)[nH]c(=O)c1C#N`, the T/C reads like this: under setting [1], 100 % of control; under setting [2], 91 % of control.
`CC(C)(C)C(Br)C(=O)NN=C(c1ccccc1)c1ccccc1` (centres undefined): the T/C is 106 % of control under setting [4], 105 % of control under setting [5] and 99 % of control under setting [6].
As to `CN1N=C(C2=NN(C)C(=O)N(C)N2)NN(C)C1=O`, the T/C is, setting by setting: under setting [7], 101 % of control; under setting [8], 97 % of control; under setting [9], 104 % of control and 105 % of control.
Take `CCn1c(Cl)c(/C=C2/N=C(c3ccccc3)OC2=O)c2ccccc21`: the T/C by setting is: (dose: 25.0 mg/kg/injection, schedule: Q01DX001 (ip), vehicle: saline with Tween-80) 95 % of control; (dose: 50.0 mg/kg/injection, schedule: Q01DX001 (ip), vehicle: saline with Tween-80) 86 % of control; under setting [10], 92 % of control; (dose: 400.0 mg/kg/injection, schedule: Q01DX001 (ip), vehicle: Klucel (hydroxypropylcellulose) (HPC)) 86 % of control.
For `CC1=CCN(C)C(C#N)C1` (centres undefined), the T/C is, setting by setting: (dose: 12.5 mg/kg/injection, schedule: Q01DX005 (ip), vehicle: saline) 97 % of control; under setting [11], 105 % of control; under setting [12], 105 % of control.
`C/C(=N\N=C(N)N)c1ccc(-c2ccccc2)cc1`: the T/C by setting is: (dose: 25.0 mg/kg/injection, schedule: Q04DX002 (ip), vehicle: saline with Tween-80) 111 % of control; (dose: 50.0 mg/kg/injection, schedule: Q04DX002 (ip), vehicle: saline with Tween-80) 109 % of control.
For `C/C(=N\O)c1ccccc1N=Nc1ccc(N(CCCl)CCCl)cc1C`, the T/C runs as follows: (dose: 50.0 mg/kg/injection, schedule: Q01DX001 (ip), vehicle: Klucel (hydroxypropylcellulose) (HPC)) 100 % of control; under setting [10], 98 % of control; (dose: 200.0 mg/kg/injection, schedule: Q01DX001 (ip), vehicle: Klucel (hydroxypropylcellulose) (HPC)) 104 % of control.
In the case of `Cc1cnc2ccc(O)cc2c1CO`, the T/C is 92 % of control (dose: 100.0 mg/kg/injection, schedule: Q04DX002 (ip), vehicle: saline with Tween-80); 94 % of control (dose: 200.0 mg/kg/injection, schedule: Q04DX002 (ip), vehicle: saline with Tween-80); 93 % of control (dose: 400.0 mg/kg/injection, schedule: Q04DX002 (ip), vehicle: saline with Tween-80).
Turning to `CC(C(N)C(=O)NC(C(=O)O)C1OC(n2ccc(=O)[nH]c2=O)C(O)C1O)C(O)c1ccc(O)cn1` (centres undefined), the T/C was 100 % of control under setting [11], 103 % of control under setting [12] and 100 % of control under setting [13].
Consider `c1ccc(C2NCCc3ccccc32)cc1` (centres undefined), for which the T/C under setting [9] was 97 % of control, the T/C under setting [14] was 105 % of control and the T/C under setting [15] was 100 % of control.
Regarding `Oc1ccc[n+](CCCCCC[n+]2cccc(O)c2)c1`, the T/C under setting [16] is 118 % of control; the T/C under setting [17] was 105 % of control; the T/C under setting [18] was 110 % of control; the T/C under setting [19] was 112 % of control; the T/C under setting [20] was 102 % of control; the T/C (dose: 400.0 mg/kg/injection, schedule: Q01DX009 (ip), vehicle: water) was 102 % of control.
As for `C/C(=C\C(=O)c1ccccc1)Nc1ccccc1Cl`, the T/C is, setting by setting: (dose: 12.5 mg/kg/injection, schedule: Q01DX009 (ip), vehicle: saline) 100 % of control; (dose: 25.0 mg/kg/injection, schedule: Q01DX009 (ip), vehicle: saline) 102 % of control; (dose: 50.0 mg/kg/injection, schedule: Q01DX009 (ip), vehicle: saline) 89 % of control.
In the case of `O=C1NN(c2ccccc2)C(=O)/C1=C\c1ccccc1`, the T/C was 91 % of control under setting [4]; 100 % of control (dose: 75.0 mg/kg/injection, schedule: Q01DX009 (ip), vehicle: saline with Tween-80); 94 % of control under setting [5]; 99 % of control (dose: 150.0 mg/kg/injection, schedule: Q01DX009 (ip), vehicle: saline with Tween-80); 95 % of control under setting [6]; 95 % of control (dose: 300.0 mg/kg/injection, schedule: Q01DX009 (ip), vehicle: saline with Tween-80). The T/C reads like this: (dose: 400.0 mg/kg/injection, schedule: Q01DX009 (ip), vehicle: saline with Tween-80) 114 % of control; (dose: 600.0 mg/kg/injection, schedule: Q01DX009 (ip), vehicle: saline with Tween-80) 104 % of control.
`O=C1CCOCCCOCCC(=O)OCCCOC(=O)CCOCCCOCCC(=O)OCCCO1`: the T/C under setting [9] was 100 % of control and the T/C under setting [14] was 105 % of control.
As for `COc1cc(O)c(/C=N/Nc2ccc3ccccc3n2)c(OC)c1`, the T/C was 91 % of control (dose: 100.0 mg/kg/injection, schedule: Q01DX001 (ip), vehicle: saline with Tween-80); 104 % of control (dose: 200.0 mg/kg/injection, schedule: Q01DX001 (ip), vehicle: saline with Tween-80); 89 % of control (dose: 400.0 mg/kg/injection, schedule: Q01DX001 (ip), vehicle: saline with Tween-80).
Take `O=C1c2ccccc2C(=O)c2c(Nc3cc4c5c(ccc6c7ccc8c9c(cc(Nc%10cccc%11c%10C(=O)c%10ccccc%10C%11=O)c(c3c56)c97)-c3ccccc3C8=O)C(=O)c3ccccc3-4)cccc21`: the T/C was 106 % of control under setting [7]; 101 % of control under setting [8]; 98 % of control and 101 % of control under setting [9]; 96 % of control under setting [14].
For `CC1CCC(C(C)C)C(OC(=O)c2cc[n+](C)cc2)C1` (centres undefined), the T/C under setting [9] was 107 % of control and the T/C under setting [14] was 98 % of control.
In the case of `O=NNc1c2c(nc3ccccc13)CCCC2`, the T/C is 94 % of control (dose: 3.12 mg/kg/injection, schedule: Q01DX009 (ip), vehicle: water); 94 % of control (dose: 6.25 mg/kg/injection, schedule: Q01DX009 (ip), vehicle: water); 103 % of control under setting [16]; 100 % of control and 111 % of control and 112 % of control under setting [17]; 100 % of control and 110 % of control and 123 % of control under setting [18]; 100 % of control and 106 % of control under setting [19]. Besides, the T/C under setting [20] was 89 % of control.
With `CC(=O)Oc1ccc(CO)cc1OC(C)=O`, the T/C is, setting by setting: under setting [12], 101 % of control and 102 % of control; under setting [13], 106 % of control and 108 % of control.
Take `CCC1CN2CCO[Si](CC[Si](C)(C)C)(OCC2)O1` (centres undefined): the T/C is 97 % of control under setting [9]; 97 % of control under setting [14]; 101 % of control and 104 % of control under setting [15].
`O=C(c1ccccc1)c1ccc[n+](Cc2ccccc2)c1`: the T/C by setting is: under setting [11], 100 % of control; under setting [12], 111 % of control; under setting [13], 109 % of control.
